From patent US10398689B2, “Benzopiperidine derivative, preparation method thereof and medical use thereof” (Jiangsu Hengrui Medicine Co., Ltd., priority 2015, dated 2019) come the findings set out here.

One experiment concerns the target T1, ER (estrogen receptor) (Homo sapiens, UniProt P03372).
T1 construct: MCF-7/ERE-luciferase monoclonal cells were selected by transfection of MCF-7; host or cells: MCF-7/ERE-luciferase (only the ERE-luciferase reporter was transfected)
T1 sequence (P03372 1-595): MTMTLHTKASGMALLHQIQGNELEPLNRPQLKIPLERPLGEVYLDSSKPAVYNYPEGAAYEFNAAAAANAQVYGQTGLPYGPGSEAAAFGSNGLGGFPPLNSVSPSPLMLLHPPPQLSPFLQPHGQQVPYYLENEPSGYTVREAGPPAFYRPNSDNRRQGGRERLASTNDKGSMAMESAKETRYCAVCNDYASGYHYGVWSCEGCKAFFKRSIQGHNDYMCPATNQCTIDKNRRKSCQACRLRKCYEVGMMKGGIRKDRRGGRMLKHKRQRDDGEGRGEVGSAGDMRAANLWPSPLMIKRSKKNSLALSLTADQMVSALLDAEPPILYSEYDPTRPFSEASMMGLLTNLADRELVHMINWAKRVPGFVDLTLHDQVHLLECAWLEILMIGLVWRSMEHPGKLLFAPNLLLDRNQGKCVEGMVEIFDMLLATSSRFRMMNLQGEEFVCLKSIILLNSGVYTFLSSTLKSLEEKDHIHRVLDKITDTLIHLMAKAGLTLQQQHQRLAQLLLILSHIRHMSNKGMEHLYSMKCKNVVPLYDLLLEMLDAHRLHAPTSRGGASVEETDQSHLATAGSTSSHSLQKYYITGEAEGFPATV
The experiment in a line: Inhibition of the binding of estrogen (E) to estrogen receptor (ER), MCF-7/ERE-luciferase reporter cells. Particulars: MCF-7/ERE-luciferase cells, 0.1 nM estradiol, 24 hours, chemiluminescence; read-out: IC50 value of inhibition effect on the binding of E to ER. It is filed as cell-based. The method, then:
The compounds of the present invention have an inhibition effect on the binding of E (estrogen) to ER (estrogen receptor), thereby blocking the binding of a complex of E and ER complex to ERE (estrogen responsive element), and subsequently blocking the expression of downstream luciferase protein.
The inhibition effect of the compounds on the binding of E to ER in vitro was tested by the following method.
The object of this experiment was to determine the inhibition effect of the compounds on the binding of E to ER, and the in vitro activity of the compounds was evaluated according to the IC50 values.
ERE was cloned into the upstream of the luciferase gene, and MCF-7/ERE-luciferase monoclonal cells were selected by transfection of MCF-7 (Cell Bank of Chinese Academy of Sciences typical culture preservation Committee, TCHu74). MCF-7/ERE-luciferase cells were inoculated into the MEM medium (hyclone, SH30024.01B) containing 10% charcoal stripped FBS (Moregate, FBSF), 1% sodium pyruvate (Sigma, S8636), 1% nonessential amino acids (Sigma, M7145) and 500 μg/ml G418 in a 96-well plates with a density of 30,000 cells/well, and the cells were incubated under the conditions of 37° C., and 5% CO2. The drug was prepared as a 20 mM stock solution that was later diluted with 100% DMSO in 10 fold concentration gradient, and then diluted 20-fold with the medium DMEM. After incubation for 24 hours, the medium was removed, then 0.1 nM estradiol (Sigma, E2758) and 10 μl of the drug diluted with the medium were added to each well, and the control group was added with DMSO. The plate was gently shaken and incubated in a incubator at 37° C., 5% CO2. After 24 hours, the cell culture medium was discarded, Then, 50 μl of the prepared luciferase substrate (Promega, E6110) was added to each well, and the plate was placed in the dark at room temperature for 10-15 minutes, then the chemiluminescence signal value was determined.
The inhibition effect of the compounds of the present invention on the binding of E to ER was tested by the experiment described above. The values of the chemiluminescence signal vs the logarithmic concentrations of the compounds were plotted using Graphpad Prism, and the measured IC50 values are shown in Table 1.
For orientation: A reporter such as luciferase makes a cellular process visible.

The subject of the next experiment is MCF7 cells. Kind of experiment: Inhibition of the proliferation of MCF7 cells (Cell Titer-Glo). It is filed as cell-based. Particulars: Homo sapiens, MCF-7 cells, 72 hours, read-out: IC50 value of inhibition effect on the proliferation of MCF7 cells. The method, then: The object of this experiment was to determine the inhibition effect of the compounds on the proliferation activity of MCF7 cells, and the in vitro activity of the compounds was evaluated according to the IC50 values.
MCF-7 cells (Cell Bank of Chinese Academy of Sciences typical culture preservation Committee, TChu 74) were inoculated into the MEM medium (Hyclone, SH30024.01B) containing 10% FBS (Gibco, 10099-141), 1% sodium pyruvate (Sigma, S8636), and 1% nonessential amino acids (Sigma, M7145) in a 96-well plate with a density of 40,000 cells/well, and the cells were incubated under the conditions of 37° C., and 5% CO2. The compound was prepared as a 20 mM stock solution that was later diluted to 1000× final concentration with 100% DMSO, and then diluted with 20-fold medium containing 2% FBS. After incubation for 24 hours, the medium was removed and 90 μl of the medium containing 2% FBS and 10 μl of the drug were added to each well, 10 […] of DMSO was added to the control group, and the blank group contained only 100 μl medium containing 2% FBS. The plate was gently shaken and incubated in a incubator at 37° C., 5% CO2. After 72 hours later, 50 μl of mixed Cell Titer-Glo (Promega, G7571) was added to each well. The plate was shaken until the ingredients were mixed uniformly, and placed at room temperature for 10 minutes, then the chemiluminescence signal value was determined. The inhibition effect of the compound AZD9496 at 100 nM on the proliferation of MCF-7 cells was set to 100%, the maximum inhibition rate of other compounds=(chemiluminescence signal valuenegative control−chemiluminescence signal valuecompound 100 nm)/(chemiluminescence signal valuenegative control−chemiluminescence signal valueAZD9496 100 nm)×100%, and the negative control was a well with 0.5% DMSO.
The values of the chemiluminescence signals vs the logarithmic concentrations of the compounds were plotted using Graghpad Prism to obtain the IC50 values.

As to `CCn1cc(-c2ccc3c(c2)CC(C)N(c2ccc(C4CC4)cc2)C3c2ccc(/C=C/C(=O)O)cc2)cn1` [Example 13, (E)-3-(4-((1R,3R/1S,3S)-2-(4-Cyclopropylphenyl)-6-(1-ethyl-1H-pyrazol-4-yl)-3-methyl-1,2,3,4-tetrahydroisoquinolin-1-yl)phenyl)acrylic acid], the IC50 came to 0.27 nM on ER (estrogen receptor) and 1.12 nM with MCF7 cells. As to `CCc1ccc(N2C(C)Cc3cc(-c4cnn(CC)c4)ccc3C2c2ccc(/C=C/C(=O)O)cc2)cc1` [Example 17, (E)-3-(4-((1R,3R/1S,3S)-6-(1-Ethyl-1H-pyrazol-4-yl)-2-(4-ethylphenyl)-3-methyl-1,2,3,4-tetrahydroisoquinolin-1-yl)phenyl)acrylic acid], the IC50 on ER (estrogen receptor) came out at 3.32 nM; with MCF7 cells, 0.65 nM.

With `CCCc1ccc(N2C(C)Cc3cc(-c4cnn(C)c4)ccc3C2c2ccc(/C=C/C(=O)O)cc2)cc1` [Example 20, (E)-3-(4-((1R,3R/1S,3S)-3-Methyl-6-(1-methyl-1H-pyrazol-4-yl)-2-(4-propylphenyl)-1,2,3,4-tetrahydroisoquinolin-1-yl)phenyl)acrylic acid], the IC50 in the experiment on MCF7 cells is 4.53 nM. For the compound `CCn1cc(-c2ccc3c(c2)CC(C)N(c2ccc(C4CC4)cc2F)C3c2ccc(/C=C/C(=O)O)cc2)cn1` [Example 22, (E)-3-(4-((1R,3R/1S,3S)-2-(4-Cyclopropyl-2-fluorophenyl)-6-(1-ethyl-1H-pyrazol-4-yl)-3-methyl-1,2,3,4-tetrahydroisoquinolin-1-yl)phenyl)acrylic acid], the IC50 at ER (estrogen receptor) amounted to 1 nM; with MCF7 cells it was 0.57 nM.

On to `CCc1ccc(N2C(C)Cc3cc(-c4cnn(CC)c4)ccc3C2c2ccc(/C=C/C(=O)O)cc2)c(Cl)c1` [Example 23, (E)-3-(4-((1R,3R/1S,3S)-2-(2-Chloro-4-ethylphenyl)-6-(1-ethyl-1H-pyrazol-4-yl)-3-methyl-1,2,3,4-tetrahydroisoquinolin-1-yl)phenyl)acrylic acid], for which the IC50 at ER (estrogen receptor) was 0.85 nM; with MCF7 cells it was 0.81 nM. As for `CCn1cc(-c2ccc3c(c2)CC(C)N(c2ccc(C4CC4)cc2Cl)C3c2ccc(/C=C/C(=O)O)cc2)cn1` [Example 24, (E)-3-(4-((1R,3R/1S,3S)-2-(2-Chloro-4-cyclopropylphenyl)-6-(1-ethyl-1H-pyrazol-4-yl)-3-methyl-1,2,3,4-tetrahydroisoquinolin-1-yl)phenyl)acrylic acid], the IC50 was 1.81 nM at ER (estrogen receptor) and 0.9 nM with MCF7 cells. Taken in the same sequence, the figures for `CCn1cc(-c2ccc3c(c2)CC(C)N(c2ccc(C4CC4)cc2)C3c2ccc(/C=C/C(=O)O)cc2F)cn1` [Example 25, (E)-3-(4-((1S,3R/1R,3S)-2-(4-Cyclopropylphenyl)-6-(1-ethyl-1H-pyrazol-4-yl)-3-methyl-1,2,3,4-tetrahydroisoquinolin-1-yl)-3-fluorophenyl)acrylic acid] were 1.62 nM and 0.89 nM. Take `CCn1cc(-c2ccc3c(c2)CC(C)N(c2ccc(C4CC4)c(F)c2)C3c2ccc(/C=C/C(=O)O)cc2)cn1` [Example 26, (E)-3-(4-((1R,3R/1S,3S)-2-(4-Cyclopropyl-3-fluorophenyl)-6-(1-ethyl-1H-pyrazol-4-yl)-3-methyl-1,2,3,4-tetrahydroisoquinolin-1-yl)phenyl)acrylic acid]: at ER (estrogen receptor), the IC50 turned out to be 6.76 nM. With `CCn1cc(-c2ccc3c(c2)C[C@@H](C)N(c2ccc(C4CC4)cc2C)[C@@H]3c2ccc(/C=C/C(=O)O)cc2)cn1` [Example 28, (E)-3-(4-((1R,3R)-2-(4-Cyclopropyl-2-methylphenyl)-6-(1-ethyl-1H-pyrazol-4-yl)-3-methyl-1,2,3,4-tetrahydroisoquinolin-1-yl)phenyl)acrylic acid], the values for the IC50 at ER (estrogen receptor) and in the experiment with MCF7 cells were 0.42 nM and 0.31 nM, respectively. For `CC1Cc2cc(-c3cnn(C(F)F)c3)ccc2C(c2ccc(/C=C/C(=O)O)cc2)N1c1ccc(C2CC2)cc1` (stereo not drawn) [Example 29], the IC50 on ER (estrogen receptor) came out at 1.26 nM; in the experiment with MCF7 cells it was 2.36 nM. On to `CCn1cc(-c2ccc3c(c2)CC(C)N(c2ccc(C4CC4)cc2)C3c2c(F)cc(/C=C/C(=O)O)cc2F)cn1` [Example 30, (E)-3-(4-((1S,3R/1R,3S)-2-(4-Cyclopropylphenyl)-6-(1-ethyl-1H-pyrazol-4-yl)-3-methyl-1,2,3,4-tetrahydroisoquinolin-1-yl)-3,5-difluorophenyl)acrylic acid], for which the IC50 stood at 0.34 nM on ER (estrogen receptor) and 2.7 nM with MCF7 cells. `CCn1cc(-c2ccc3c(c2)C[C@@H](C)N(c2ccc(C4CC4)cc2)[C@@H]3c2c(F)cc(/C=C/C(=O)O)cc2F)cn1` [Example 32]: the figures for the IC50 on ER (estrogen receptor) and in the experiment with MCF7 cells were 0.74 nM and 0.42 nM, respectively. For the compound `Cc1ccc(N2[C@H](c3ccc(/C=C/C(=O)O)cc3)c3ccc(-c4cnn(C)c4)cc3C[C@H]2C)cc1` [Example 34], the IC50 at ER (estrogen receptor) worked out at 5.42 nM. Take `CC1Cc2cc(-c3cnn(C)c3)ccc2C(c2ccc(/C=C/C(=O)O)cc2)N1c1ccc(C(C)(C)C)cc1` [Example 41, (E)-3-(4-((1R,3R/1S,3S)-2-(4-(tert-Butyl)phenyl)-3-methyl-6-(1-methyl-1H-pyrazol-4-yl)-1,2,3,4-tetrahydroisoquinolin-1-yl)phenyl)acrylic acid]: the IC50 at ER (estrogen receptor) is 8.08 nM. Same read-out and setting: then `CC1Cc2cc(-c3cnn(C)c3)ccc2C(c2ccc(/C=C/C(=O)O)cc2)N1c1ccc(CC(F)(F)F)cc1` [Example 43, (E)-3-(4-((1R,3R/1S,3S)-3-Methyl-6-(1-methyl-1H-pyrazol-4-yl)-2-(4-(2,2,2-trifluoroethyl)phenyl)-1,2,3,4-tetrahydroisoquinolin-1-yl)phenyl)acrylic acid], with 31.7 nM.

As for `CCOc1ccc(N2C(C)Cc3cc(-c4cnn(C)c4)ccc3C2c2ccc(/C=C/C(=O)O)cc2)cc1` [Example 44, (E)-3-(4-((1R,3R/1S,3S)-2-(4-Ethoxyphenyl)-3-methyl-6-(1-methyl-1H-pyrazol-4-yl)-1,2,3,4-tetrahydroisoquinolin-1-yl)phenyl)acrylic acid], on ER (estrogen receptor), the IC50 was found to be 7.57 nM. Regarding `CCc1ccc(N2C(C)Cc3cc(-c4cnn(C)c4)ccc3C2c2ccc(/C=C/C(=O)O)cc2)c(CC)c1` [Example 45, (E)-3-(4-((1R,3R/1S,3S)-2-(2,4-Diethylphenyl)-3-methyl-6-(1-methyl-1H-pyrazol-4-yl)-1,2,3,4-tetrahydroisoquinolin-1-yl)phenyl)acrylic acid], the IC50 at ER (estrogen receptor) amounted to 4.06 nM.
